From publication PMC4362054, “C-5’-Triazolyl-2’-oxa-3’-aza-4’a-carbanucleosides: Synthesis and biological evaluation” (Beilstein Journal of Organic Chemistry, 2015)

Assays:
[1] = Inhibition of cell proliferation (MTT method), BS-C-1 cells; type: cell-based; details: African green monkey, BS-C-1 cells (African green monkey kidney), concentration which inhibited cell growth by 50% vs control cultures, mean of three assays
HFF cells = assay: Inhibition of cell proliferation (MTT method), HFF cells; type: cell-based, human; details: concentration which inhibited cell growth by 50% vs control cultures, mean of three assays
[2] = Inhibition of cell proliferation (MTT method), Vero cells; type: cell-based; details: African green monkey, Vero cells (African green monkey kidney), concentration which inhibited cell growth by 50% vs control cultures, mean of three assays
[3] = Inhibition of cell proliferation (MTT method), MDCK cells; type: cell-based; details: dog, MDCK cells (Madin-Darby canine kidney), concentration which inhibited cell growth by 50% vs control cultures, mean of three assays
HEp-2 cells = assay: Inhibition of cell proliferation (MTT method), HEp-2 cells; type: cell-based, human; details: concentration which inhibited cell growth by 50% vs control cultures, mean of three assays, read-out: CC50 HEp2
[4] = Inhibition of cell proliferation (MTT method), HFF cells; type: cell-based, human; details: human, HFF cells (human foreskin fibroblasts), concentration which inhibited cell growth by 50% vs control cultures, mean of three assays
[5] = Inhibition of cell proliferation (MTT method), HEp-2 cells; type: cell-based, human; details: human, HEp-2 cells (human epidermoid carcinoma larynx), concentration which inhibited cell growth by 50% vs control cultures, mean of three assays, read-out: CC50 HEp2
[6] = statement in words; reference not given; cited from earlier work
[7] = statement in words; reference not given; cited from earlier work; remark: listed apart in the source

| Compound | melting point [°C] | CC50 [1] [µM] | CC50 (HFF cells) [µM] | CC50 [2] [µM] | CC50 [3] [µM] | CC50 (HEp-2 cells) [µM] | CC50 [4] [µM] | CC50 [5] [µM] | cytotoxicity [6] | antiviral activity [7] |
| --- | --- | --- | --- | --- | --- | --- | --- | --- | --- | --- |
| COc1ccc(-c2cn(C[C@H]3C[C@@H](n4cc(C)c(=O)[nH]c4=O)ON3C)nn2)cc1 [13e] | 215 to 218 | 20 | 5 | 20 | 20 | 40 | – | – | – | – |
| COc1ccc(-c2cn(C[C@H]3C[C@H](n4cc(C)c(=O)[nH]c4=O)ON3C)nn2)cc1 [14e] | 202 to 205 | 20 | 5 | 20 | 20 | 40 | – | – | – | – |
| Cc1cn([C@@H]2C[C@H](Cn3cc(-c4ccc(F)cc4)nn3)N(C)O2)c(=O)[nH]c1=O [13f] | 269 to 271 | 10 | – | 10 | 10 | 40 | 40 | – | – | – |
| Cc1cn([C@H]2C[C@H](Cn3cc(CCO)nn3)N(C)O2)c(=O)[nH]c1=O [14a] | 202 to 206 | 20 | – | 20 | 20 | 40 | 20 | – | – | – |
| CCCc1cn(C[C@H]2C[C@@H](n3cc(C)c(=O)[nH]c3=O)ON2C)nn1 [13c] | 132 to 137 | 20 | 5 | 20 | 20 | 40 | – | – | – | – |
| CCCCCc1ccc(-c2cn(C[C@H]3C[C@@H](n4cc(C)c(=O)[nH]c4=O)ON3C)nn2)cc1 [13g] | 259 to 260 | 10 | 5 | 10 | 10 | – | – | 20 | – | – |
| Cc1cn([C@H]2C[C@H](Cn3cc(CO)nn3)N(C)O2)c(=O)[nH]c1=O [14b] | 198 to 201 | 10 | – | 20 | 20 | 40 | 20 | – | – | – |
| Cc1cn([C@H]2C[C@H](Cn3cc(-c4ccc(F)cc4)nn3)N(C)O2)c(=O)[nH]c1=O [14f] | 230 to 233 | 20 | 5 | 20 | 20 | 40 | – | – | – | – |
| Cc1cn([C@@H]2C[C@H](Cn3cc(CO)nn3)N(C)O2)c(=O)[nH]c1=O [13b] | 205 to 210 | 30 | – | 40 | 30 | 40 | 30 | – | – | – |
| Cc1cn([C@@H]2C[C@H](CO)N(C)O2)c(=O)[nH]c1=O [compound 8, (3′RS,5′SR)-2′-N-methyl-3′-hydroxymethyl-1′,2′-isoxazolidin-5′-ylthymine] | – | – | – | – | – | – | – | – | do not show any cytotoxicity | endowed with antiviral activity |
| CCCc1cn(C[C@H]2C[C@H](n3cc(C)c(=O)[nH]c3=O)ON2C)nn1 [14c] | 168 to 170 | 20 | 5 | 20 | 20 | 40 | – | – | – | – |
| CCCCCc1ccc(-c2cn(C[C@H]3C[C@H](n4cc(C)c(=O)[nH]c4=O)ON3C)nn2)cc1 [14g] | 245 to 248 | 10 | 5 | 10 | 10 | – | – | 20 | – | – |
| Cc1cn([C@@H]2C[C@H](Cn3cc(-c4ccccc4)nn3)N(C)O2)c(=O)[nH]c1=O [13d] | 268 to 272 | 20 | 5 | 20 | 20 | – | – | 20 | – | – |
| Cc1cn([C@H]2C[C@H](Cn3cc(-c4ccccc4)nn3)N(C)O2)c(=O)[nH]c1=O [14d] | 233 to 235 | 5 | 5 | 5 | 5 | – | – | 5 | – | – |
| Cc1cn([C@@H]2C[C@H](Cn3cc(CCO)nn3)N(C)O2)c(=O)[nH]c1=O [13a] | 215 to 218 | 10 | – | 10 | 10 | 40 | 10 | – | – | – |
